Experimental data from patent US5286648A, “A84575 antibiotics” (Eli Lilly and Company, priority 1991, dated 1994).
In brackets after ≈: the same amount, converted by molar mass.

What was measured:
Propionibacterium acnes = assay: Susceptibility of anaerobic bacterial isolates, agar dilution (Table 13); format: cell-based; conditions: Cutibacterium acnes, 24 h
Clostridium difficile [1] = assay: as above; format: cell-based; conditions: Clostridioides difficile; strain 2994; 24 hr; A84575: 3 different lots
Source text: (§1) *MIC Determined by the AgarDilution Method, Endpoints Read After 24Hr.

Clostridium septicum = assay: as above; format: cell-based; conditions: strain 1128, 24 hr, A84575: 3 different lots
Source text: as §1

[2] = system: Bacteroides thetaiotaomicron; assay: as above; format: cell-based; conditions: strain 1438, 24 hr, A84575: 3 different lots
Source text: as §1

Peptococcus prevoti [3] = assay: as above; format: cell-based; conditions: strain 1281; 24 hr; A84575: 3 different lots
Source text: as §1

Clostridium difficile [4] = assay: Susceptibility of Clostridium difficile strains, agar dilution (Table 14); format: cell-based; conditions: Clostridioides difficile, 24 h
Source text: as §1

[5] = system: Peptococcus asaccharolyticus; assay: Susceptibility of anaerobic cocci isolates, agar dilution (Table 16); format: cell-based; conditions: Peptoniphilus asaccharolyticus, 24 h
Staphylococcus aureus = assay: In vitro activity vs. Staphylococcus aureus strains, agar dilution, Mueller-Hinton agar (Table 6); format: cell-based
S. salivarius = assay: In vitro activity vs. miscellaneous Streptococcus strains, agar dilution, Mueller-Hinton agar (Table 9)
Streptococcus pneumoniae [6] = assay: In vitro activity vs. Streptococcus pneumoniae strains, agar dilution, Mueller-Hinton agar (Table 10)
Hemophilus influenza = assay: In vitro activity vs. Hemophilus influenza strains, broth dilution, Shadler broth + 5% fildes extract (Table 12); format: cell-based
Source text: ^1 Using brothdilution method and testing the strains with Shadler
broth +5% fildes extract

[7] = system: Peptostreptococcus anaerobium; assay: Susceptibility of anaerobic bacterial isolates, agar dilution (Table 13); format: cell-based; conditions: 24 h
[8] = system: Peptostreptococcus intermedius; assay: as above; format: cell-based; conditions: 24 h
[9] = Plasma levels in mice (Table 18); format: in vivo, mice (ICR Barrier); design: unit not given here; conditions: subcutaneous, 20 mg/kg, n = 5
Peptococcus constellatus = assay: Susceptibility of anaerobic cocci isolates, agar dilution (Table 16); format: cell-based; conditions: Streptococcus constellatus, 24 h
S. mutans = assay: In vitro activity vs. miscellaneous Streptococcus strains, agar dilution, Mueller-Hinton agar (Table 9)
Fusobacterium symbiosum = assay: Susceptibility of anaerobic bacterial isolates, agar dilution (Table 13); format: cell-based; conditions: 24 h
[10] = system: Peptostreptococcus intermedius; assay: Susceptibility of anaerobic cocci isolates, agar dilution (Table 16); format: cell-based; conditions: 24 h
[11] = system: Bacteroides malaninogenicus; assay: Susceptibility of anaerobic bacterial isolates, agar dilution (Table 13); format: cell-based; conditions: 24 h
Bacteroides corrodens = assay: as above; format: cell-based; conditions: Eikenella corrodens, 24 h
Peptococcus prevoti [12] = assay: Susceptibility of anaerobic cocci isolates, agar dilution (Table 16); format: cell-based; conditions: 24 hr, A84575: 3 different lots
Source text: as §1

[13] = system: Peptostreptococcus anaerobius; assay: as above; format: cell-based; conditions: 24 h
Streptococcus pneumoniae [14] = assay: In vivo activity, administered subcutaneously to mice (Table 17); conditions: sc, subcutaneous, LD challenge 587

SMILES: CN[C@H](CC(C)C)C(=O)N[C@H]1C(=O)N[C@@H](CC(N)=O)C(=O)N[C@H]2C(=O)N[C@H]3C(=O)N[C@H](C(=O)N[C@H](C(=O)O)c4cc(O)cc(O)c4-c4cc3ccc4O)[C@H](O)c3ccc(c(Cl)c3)Oc3cc2cc(c3O[C@@H]2O[C@H](CO)[C@@H](O)[C@H](O)[C@H]2O[C@H]2C[C@](C)(N)[C@H](O)[C@H](C)O2)Oc2ccc(cc2Cl)[C@H]1O [Vancomycin]
- MIC (Propionibacterium acnes): 4 µg/mL (≈ 2.76 µM)
- MIC (Clostridium difficile [1]): 2 µg/mL (≈ 1.38 µM)
- MIC (Clostridium septicum): 2 µg/mL (≈ 1.38 µM)
- MIC [2]: 16 µg/mL (≈ 11 µM)
- MIC (Peptococcus prevoti [3]): 4 µg/mL (≈ 2.76 µM)
- MIC (Clostridium difficile [4]; strain 78, A84575: 3 different lots): 4 µg/mL (≈ 2.76 µM)
- MIC (Clostridium difficile [4]; strain 107B, A84575: 3 different lots): 0.25 µg/mL (≈ 0.173 µM)
- MIC (Clostridium difficile [4]; strain 111F, A84575: 3 different lots): 1 µg/mL (≈ 0.69 µM)
- MIC (Clostridium difficile [4]; strain 1153, A84575: 3 different lots): 1 µg/mL (≈ 0.69 µM)
- MIC (Clostridium difficile [4]; strain 2634, A84575: 3 different lots): 0.5 µg/mL (≈ 0.345 µM)
- MIC (Clostridium difficile [4]; strain 3424-5B, A84575: 3 different lots): 1 µg/mL (≈ 0.69 µM)
- MIC (Clostridium difficile [4]; strain 3816, A84575: 3 different lots): 1 µg/mL (≈ 0.69 µM)
- MIC (Clostridium difficile [4]; strain 3950D, A84575: 3 different lots): 0.5 µg/mL (≈ 0.345 µM)
- MIC (Clostridium difficile [4]; strain 6890, A84575: 3 different lots): 0.5 µg/mL (≈ 0.345 µM)
- MIC (Clostridium difficile [4]; strain 8484, A84575: 3 different lots): 2 µg/mL (≈ 1.38 µM)
- MIC (Clostridium difficile [4]; strain A-194, A84575: 3 different lots): 1 µg/mL (≈ 0.69 µM)
- MIC (Clostridium difficile [4]; strain A-195, A84575: 3 different lots): 0.5 µg/mL (≈ 0.345 µM)
- MIC (Clostridium difficile [4]; strain A-196, A84575: 3 different lots): 0.5 µg/mL (≈ 0.345 µM)
- MIC (Clostridium difficile [4]; strain A-279, A84575: 3 different lots): 0.5 µg/mL (≈ 0.345 µM)
- MIC (Clostridium difficile [4]; strain A-280, A84575: 3 different lots): 1 µg/mL (≈ 0.69 µM)
- MIC (Clostridium difficile [4]; strain A-281, A84575: 3 different lots): 1 µg/mL (≈ 0.69 µM)
- MIC (Clostridium difficile [4]; strain WAL-2112, A84575: 3 different lots): 1 µg/mL (≈ 0.69 µM)
- MIC (Clostridium difficile [4]; strain WAL-3657, A84575: 3 different lots): 2 µg/mL (≈ 1.38 µM)
- MIC (Clostridium difficile [4]; strain WAL-4268, A84575: 3 different lots): 1 µg/mL (≈ 0.69 µM)
- MIC ([5]; strain 1302, A84575: 3 different lots): 1 µg/mL (≈ 0.69 µM)
- MIC ([5]; strain WAL-3218, A84575: 3 different lots): 0.125 µg/mL (≈ 0.0863 µM)
- MIC (Staphylococcus aureus; strain 3055): 1 µg/mL (≈ 0.69 µM)
- MIC (Staphylococcus aureus; strain 3109): 1 µg/mL (≈ 0.69 µM)
- MIC (Staphylococcus aureus; strain 3110): 0.5 µg/mL (≈ 0.345 µM)
- MIC (Staphylococcus aureus; strain 3123): 1 µg/mL (≈ 0.69 µM)
- MIC (Staphylococcus aureus; strain 3128): 1 µg/mL (≈ 0.69 µM)
- MIC (Staphylococcus aureus; strain 3131, methicillin-resistant): 0.5 µg/mL (≈ 0.345 µM)
- MIC (Staphylococcus aureus; strain 3136): 1 µg/mL (≈ 0.69 µM)
- MIC (Staphylococcus aureus; strain 3484A, methicillin-resistant): 1 µg/mL (≈ 0.69 µM)
- MIC (Staphylococcus aureus; strain 25923): 2 µg/mL (≈ 1.38 µM)
- MIC (Staphylococcus aureus; strain #43, methicillin-resistant): 0.5 µg/mL (≈ 0.345 µM)
- MIC (Staphylococcus aureus; strain BGB #10, methicillin-resistant): 1 µg/mL (≈ 0.69 µM)
- MIC (Staphylococcus aureus; strain CVT#6, methicillin-resistant): 0.5 µg/mL (≈ 0.345 µM)
- MIC (Staphylococcus aureus; strain DUTT, methicillin-resistant): 0.5 µg/mL (≈ 0.345 µM)
- MIC (Staphylococcus aureus; strain H290): 1 µg/mL (≈ 0.69 µM)
- MIC (Staphylococcus aureus; strain H535): 0.5 µg/mL (≈ 0.345 µM)
- MIC (Staphylococcus aureus; strain ID-VI #1, methicillin-resistant): 0.5 µg/mL (≈ 0.345 µM)
- MIC (Staphylococcus aureus; strain Seattle 973, methicillin-resistant): 0.5 µg/mL (≈ 0.345 µM)
- MIC (Staphylococcus aureus; strain V92): 0.5 µg/mL (≈ 0.345 µM)
- MIC (S. salivarius): 1 µg/mL (≈ 0.69 µM)
- MIC (Streptococcus pneumoniae [6]; ATCC6301, strain ATCC 6301): 4 µg/mL (≈ 2.76 µM)
- MIC (Streptococcus pneumoniae [6]; strain 97P): 0.25 µg/mL (≈ 0.173 µM)
- MIC (Streptococcus pneumoniae [6]; strain 2764): 0.25 µg/mL (≈ 0.173 µM)
- MIC (Streptococcus pneumoniae [6]; strain BI5): 0.5 µg/mL (≈ 0.345 µM)
- MIC (Streptococcus pneumoniae [6]; strain BI343): 0.25 µg/mL (≈ 0.173 µM)
- MIC (Streptococcus pneumoniae [6]; strain BI348): 0.25 µg/mL (≈ 0.173 µM)
- MIC (Streptococcus pneumoniae [6]; strain BI374): 4 µg/mL (≈ 2.76 µM)
- MIC (Streptococcus pneumoniae [6]; strain BI508): 0.5 µg/mL (≈ 0.345 µM)
- MIC (Streptococcus pneumoniae [6]; strain BI180351): 0.25 µg/mL (≈ 0.173 µM)
- MIC (Streptococcus pneumoniae [6]; strain BI-492): 0.5 µg/mL (≈ 0.345 µM)
- MIC (Streptococcus pneumoniae [6]; strain HZ-4-2): 0.25 µg/mL (≈ 0.173 µM)
- MIC (Streptococcus pneumoniae [6]; strain M11-1-H7): 0.5 µg/mL (≈ 0.345 µM)
- MIC (Streptococcus pneumoniae [6]; strain M11-1-H10): 0.25 µg/mL (≈ 0.173 µM)
- MIC (Streptococcus pneumoniae [6]; strain M11-Z-Al): 0.25 µg/mL (≈ 0.173 µM)
- MIC (Streptococcus pneumoniae [6]; strain Park I): 0.5 µg/mL (≈ 0.345 µM)
- MIC (Hemophilus influenza; strain Astes): 64 µg/mL
- MIC (Hemophilus influenza; strain Bond): 64 µg/mL
- MIC (Hemophilus influenza; strain Bruno): 128 µg/mL
- MIC (Hemophilus influenza; strain Harper): 64 µg/mL
- MIC (Hemophilus influenza; strain Johnson): 64 µg/mL
- MIC (Hemophilus influenza; strain Lassig): 32 µg/mL
- MIC (Hemophilus influenza; strain Lawrence): 64 µg/mL
- MIC (Hemophilus influenza; strain Newton): 64 µg/mL
- MIC [7]: 1 µg/mL (≈ 0.69 µM)
- MIC [8]: 1 µg/mL (≈ 0.69 µM)
- Plasma level ([9]; 0.08 hours, *1 only 1 zone out of 5 (A84575 Complex)): 5.84 ± 2.68
- Plasma level ([9]; 0.33 hours): 14.25 ± 7.8
- Plasma level ([9]; 0.66 hours): 7.47 ± 2.5
- Plasma level ([9]; 1 hour): 5.41 ± 2.4
- Plasma level ([9]; 2 hours, *2 one very high concentration in one animal (A84575 Complex)): 0.87 ± 0.2
- MIC (Peptococcus constellatus): 1 µg/mL (≈ 0.69 µM)
- MIC (S. mutans; strain SM-1122): 1 µg/mL (≈ 0.69 µM)
- MIC (S. mutans; strain SM-1134): 2 µg/mL (≈ 1.38 µM)
- MIC (Fusobacterium symbiosum): 1 µg/mL (≈ 0.69 µM)
- MIC ([10]; strain 1524, A84575: 3 different lots): 1 µg/mL (≈ 0.69 µM)
- MIC ([10]; strain 1624, A84575: 3 different lots): 0.25 µg/mL (≈ 0.173 µM)
- MIC ([11]; strain 1856/28, A84575: 3 different lots): > 64 µg/mL
- MIC ([11]; strain 2736, A84575: 3 different lots): 16 µg/mL (≈ 11 µM)
- MIC (Bacteroides corrodens): 16 µg/mL (≈ 11 µM)
- MIC (Peptococcus prevoti [12]; strain 1281, read-out: MIC): 2 µg/mL (≈ 1.38 µM)
- MIC (Peptococcus prevoti [12]; strain 1293): 2 µg/mL (≈ 1.38 µM)
- MIC (Peptococcus prevoti [12]; strain 1407): 2 µg/mL (≈ 1.38 µM)
- MIC ([13]; strain 8, A84575: 3 different lots): 1 µg/mL (≈ 0.69 µM)
- MIC ([13]; strain 52, A84575: 3 different lots): 1 µg/mL (≈ 0.69 µM)
- MIC ([13]; strain 59, A84575: 3 different lots): 0.25 µg/mL (≈ 0.173 µM)
- MIC ([13]; strain 1428, A84575: 3 different lots): 0.03 µg/mL (≈ 0.0207 µM)
- MIC ([13]; strain 1451, A84575: 3 different lots): 2 µg/mL (≈ 1.38 µM)
- MIC ([13]; strain 1477, A84575: 3 different lots): 2 µg/mL (≈ 1.38 µM)
- ED50 (Streptococcus pneumoniae [14]): 1.58 mg/kg
